In US9409952B2, “Peptide-compound cyclization method” (Chugai Seiyaku Kabushiki Kaisha, priority 2011, dated 2016):
Starred links: 1 amine or outer side, 2 acyl side, 3 side chain; linkers in the order of their positions; H or OH if unused. Positions of bridges follow the written chain, without caps; N, C: chain ends. Non-standard residues stand in square brackets, D forms with d. Residues, ends and D or L forms follow the SMILES beside them. *: point of attachment. NMeF = CN[C@@H](Cc1ccccc1)C(=O)O; NMeI = CC[C@H](C)[C@H](NC)C(=O)O; NMeβAla = CN(CCC(=O)[*:2])[*:1]; NMeL = CN[C@@H](CC(C)C)C(=O)O; NMeV = CN[C@H](C(=O)O)C(C)C; NMeA = CN[C@@H](C)C(=O)O; Piperidide = C1CCN(*)CC1; dNMeA = CN[C@H](C)C(=O)O; Sar = CNCC(=O)O

Experiments:
[1] = PAMPA (parallel artificial membrane permeability assay); type: in vitro ADME; conditions: PAMPA; membrane permeation rate (Pe); 50 mM MOPSO buffer pH 6.5 with 5.0% glycocholic acid, 37° C., 18 hours; read-out: iPAMPA Pe
In short: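 Artificial membrane was 10% (w/v) egg lecithin plus 0.5% (w/v) cholesterol in dodecane on a PVDF filter. A 10 mM DMSO stock was added at 0.5% (v/v) to donor buffer (50 mM MOPSO, pH 6.5, 5.0% glycocholic acid). After 18 h at 37 °C, LC/MS or LC/UV gave donor and acceptor levels for Pe.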

[2] = Metabolic stability in human hepatic microsome; type: in vitro ADME; conditions: microsomes, pH 7.4; human hepatic microsome, NADPH(+); read-out: CL NADPH(+)

Row | Compound | Papp at 18 hours, 50 µM [1] | microsomal CLint at 1 uM [2]
1 | CC(C)C[C@H]1C(=O)N(C)[C@@H](CC(C)C)C(=O)N[C@H](C(=O)N(C)[C@@H](Cc2ccccc2)C(=O)N[C@@H](C)C(=O)N2CCCCC2)CC(=O)N(C)[C@@H](C)C(=O)N(C)[C@@H](Cc2ccccc2)C(=O)N(C)[C@@H](CC(C)C)C(=O)N[C@@H]([C@@H](C)O)C(=O)N(C)[C@@H](C)C(=O)N[C@@H](C(C)C)C(=O)N1C [DP-199] ([NMeA][NMeF][NMeL]T[NMeA]V[NMeL][NMeL]D[NMeF]A-Piperidide; lactam N-9) | 59 ×10⁻⁶ cm/s | 170 µL/min/mg
2 | CC(C)C[C@H]1C(=O)N[C@@H](C(C)C)C(=O)N(C)[C@@H](Cc2ccccc2)C(=O)N(C)[C@@H](C)C(=O)N[C@@H](Cc2ccccc2)C(=O)N[C@H](C(=O)N(C)[C@@H](Cc2ccccc2)C(=O)N[C@@H](C)C(=O)N2CCCCC2)CC(=O)N(C)CCC(=O)N[C@@H]([C@@H](C)O)C(=O)N(C)CC(=O)N1C [DP-200] ([NMeβAla]T[Sar][NMeL]V[NMeF][NMeA]FD[NMeF]A-Piperidide; lactam N-9) | 22 ×10⁻⁶ cm/s | 57 µL/min/mg
3 | CC(C)C[C@H]1C(=O)N(C)[C@@H](Cc2ccccc2)C(=O)N[C@@H]([C@@H](C)O)C(=O)N(C)[C@@H](C)C(=O)N[C@@H](C(C)C)C(=O)N(C)[C@@H](CC(C)C)C(=O)N(C)[C@@H](CC(C)C)C(=O)N[C@H](C(=O)N(C)[C@@H](Cc2ccccc2)C(=O)N[C@@H](C)C(=O)N2CCCCC2)CC(=O)N(C)CCC(=O)N1C [DP-201] ([NMeβAla][NMeL][NMeF]T[NMeA]V[NMeL][NMeL]D[NMeF]A-Piperidide; lactam N-9) | 27 ×10⁻⁶ cm/s | 209 µL/min/mg
4 | CC(C)C[C@H]1C(=O)N(C)[C@@H](Cc2ccccc2)C(=O)N[C@@H]([C@@H](C)O)C(=O)N(C)[C@@H](C)C(=O)N(C)[C@@H](CC(C)C)C(=O)N[C@@H](C(C)C)C(=O)N(C)[C@@H](CC(C)C)C(=O)N[C@H](C(=O)N(C)[C@@H](Cc2ccccc2)C(=O)N[C@@H](C)C(=O)N2CCCCC2)CC(=O)N(C)CC(=O)N1C [DP-202] ([Sar][NMeL][NMeF]T[NMeA][NMeL]V[NMeL]D[NMeF]A-Piperidide; lactam N-9) | 55 ×10⁻⁶ cm/s | 134 µL/min/mg
5 | CC(C)C[C@H]1C(=O)N[C@H](C(=O)N(C)[C@@H](Cc2ccccc2)C(=O)N(C)[C@@H](Cc2ccccc2)C(=O)N[C@@H](C)C(=O)N2CCCCC2)CC(=O)N[C@@H](C)C(=O)N(C)[C@@H](Cc2ccccc2)C(=O)N(C)[C@@H](C)C(=O)N(C)[C@@H](CC(C)C)C(=O)N[C@@H]([C@@H](C)O)C(=O)N(C)[C@@H](C)C(=O)N(C)[C@@H](CC(C)C)C(=O)N[C@@H](C(C)C)C(=O)N1C [DP-203] (A[NMeF][NMeA][NMeL]T[NMeA][NMeL]V[NMeL]D[NMeF][NMeF]A-Piperidide; lactam N-10) | 11 ×10⁻⁶ cm/s | 18 µL/min/mg
6 | CC(C)C[C@H]1C(=O)N[C@H](C(=O)N(C)[C@@H](Cc2ccccc2)C(=O)N(C)[C@@H](Cc2ccccc2)C(=O)N[C@@H](C)C(=O)N2CCCCC2)CC(=O)N[C@H](C)C(=O)N(C)[C@@H](C)C(=O)N(C)[C@@H](Cc2ccccc2)C(=O)N(C)[C@@H](CC(C)C)C(=O)N[C@@H]([C@@H](C)O)C(=O)N(C)[C@@H](C)C(=O)N(C)[C@@H](CC(C)C)C(=O)N[C@@H](C(C)C)C(=O)N1C [DP-204] ([dA][NMeA][NMeF][NMeL]T[NMeA][NMeL]V[NMeL]D[NMeF][NMeF]A-Piperidide; lactam N-10) | 22 ×10⁻⁶ cm/s | 48 µL/min/mg
7 | CC(C)C[C@H]1C(=O)N[C@@H]([C@@H](C)O)C(=O)N(C)[C@@H](Cc2ccccc2)C(=O)N(C)[C@@H](CC(C)C)C(=O)NCC(=O)N(C)[C@@H](C(C)C)C(=O)N[C@@H](Cc2ccccc2)C(=O)N[C@H](C(=O)N(C)[C@@H](Cc2ccccc2)C(=O)N(C)[C@@H](Cc2ccccc2)C(=O)N[C@@H](C)C(=O)N2CCCCC2)CC(=O)N[C@H](C(C)C)C(=O)N[C@@H](C(C)C)C(=O)N1C [DP-205] ([dV]V[NMeL]T[NMeF][NMeL]G[NMeV]FD[NMeF][NMeF]A-Piperidide; lactam N-10) | 0.12 ×10⁻⁶ cm/s | 29 µL/min/mg
8 | CC(C)C[C@H]1C(=O)N(C)[C@@H](CC(C)C)C(=O)N[C@@H]([C@@H](C)O)C(=O)N(C)[C@@H](Cc2ccccc2)C(=O)N(C)[C@@H](CC(C)C)C(=O)N[C@H](C(=O)N(C)[C@@H](Cc2ccccc2)C(=O)N(C)[C@@H](Cc2ccccc2)C(=O)N[C@@H](C)C(=O)N2CCCCC2)CC(=O)N(C)[C@H](C)C(=O)N(C)[C@@H](Cc2ccccc2)C(=O)N(C)[C@@H](CC(C)C)C(=O)N[C@@H](C)C(=O)N1C [DP-207] ([dNMeA][NMeF][NMeL]A[NMeL][NMeL]T[NMeF][NMeL]D[NMeF][NMeF]A-Piperidide; lactam N-10) | 0.16 ×10⁻⁶ cm/s | 12 µL/min/mg
9 | CC(C)C[C@H]1C(=O)N[C@H](C(=O)N(C)[C@@H](Cc2ccccc2)C(=O)N(C)[C@@H](Cc2ccccc2)C(=O)N[C@@H](C)C(=O)N2CCCCC2)CC(=O)N[C@@H](C)C(=O)N(C)[C@@H](Cc2ccccc2)C(=O)N(C)[C@@H](CC(C)C)C(=O)N[C@@H]([C@@H](C)O)C(=O)N(C)[C@@H](C)C(=O)N(C)[C@@H](CC(C)C)C(=O)N[C@@H](C(C)C)C(=O)N1C [DP-208] (A[NMeF][NMeL]T[NMeA][NMeL]V[NMeL]D[NMeF][NMeF]A-Piperidide; lactam N-9) | 27 ×10⁻⁶ cm/s | 34 µL/min/mg
10 | CC(C)C[C@H]1C(=O)N[C@@H](C(C)C)C(=O)N(C)[C@@H](Cc2ccccc2)C(=O)NCC(=O)N[C@H](C(=O)N(C)[C@@H](Cc2ccccc2)C(=O)N(C)[C@@H](Cc2ccccc2)C(=O)N[C@@H](C)C(=O)N2CCCCC2)CC(=O)N[C@H](C)C(=O)N[C@@H]([C@@H](C)O)C(=O)N(C)[C@@H](C)C(=O)N(C)[C@@H](Cc2ccccc2)C(=O)N1C [DP-209] ([dA]T[NMeA][NMeF][NMeL]V[NMeF]GD[NMeF][NMeF]A-Piperidide; lactam N-9) | 42 ×10⁻⁶ cm/s | 98 µL/min/mg
11 | CC(C)C[C@H]1C(=O)N[C@H](C(=O)N(C)[C@@H](Cc2ccccc2)C(=O)N(C)[C@@H](Cc2ccccc2)C(=O)N[C@@H](C)C(=O)N2CCCCC2)CC(=O)N(C)[C@@H](C)C(=O)N(C)[C@@H](Cc2ccccc2)C(=O)N[C@@H]([C@@H](C)O)C(=O)N(C)[C@@H](C)C(=O)N(C)[C@@H](CC(C)C)C(=O)N(C)[C@@H](CC(C)C)C(=O)N[C@@H](C(C)C)C(=O)N1C [DP-211] ([NMeA][NMeF]T[NMeA][NMeL][NMeL]V[NMeL]D[NMeF][NMeF]A-Piperidide; lactam N-9) | 3.2 ×10⁻⁶ cm/s | 178 µL/min/mg
12 | CC(C)C[C@H]1C(=O)N(C)[C@@H](CC(C)C)C(=O)N[C@@H](C(C)C)C(=O)N[C@H](C(=O)N(C)[C@@H](Cc2ccccc2)C(=O)N(C)[C@@H](Cc2ccccc2)C(=O)N[C@@H](C)C(=O)N2CCCCC2)CC(=O)N(C)CCC(=O)N(C)[C@@H](C)C(=O)N(C)[C@@H](Cc2ccccc2)C(=O)N[C@@H]([C@@H](C)O)C(=O)N(C)CC(=O)N1C [DP-212] ([NMeβAla][NMeA][NMeF]T[Sar][NMeL][NMeL]VD[NMeF][NMeF]A-Piperidide; lactam N-9) | 29 ×10⁻⁶ cm/s | 27 µL/min/mg
13 | CC(C)C[C@H]1C(=O)N(C)[C@@H](Cc2ccccc2)C(=O)NCC(=O)N(C)[C@@H](Cc2ccccc2)C(=O)N(C)[C@@H](C)C(=O)N[C@@H]([C@@H](C)O)C(=O)N[C@H](C(=O)N(C)[C@@H](Cc2ccccc2)C(=O)N(C)[C@@H](Cc2ccccc2)C(=O)N[C@@H](C)C(=O)N2CCCCC2)CC(=O)N(C)[C@H](C)C(=O)N[C@@H](C(C)C)C(=O)N1C [DP-213] ([dNMeA]V[NMeL][NMeF]G[NMeF][NMeA]TD[NMeF][NMeF]A-Piperidide; lactam N-9) | 55 ×10⁻⁶ cm/s | 71 µL/min/mg
14 | CC(C)C[C@H]1C(=O)N[C@@H]([C@@H](C)O)C(=O)N(C)[C@@H](C)C(=O)N(C)[C@@H](CC(C)C)C(=O)N[C@@H](C(C)C)C(=O)N[C@H](C(=O)N(C)[C@@H](Cc2ccccc2)C(=O)N(C)[C@@H](Cc2ccccc2)C(=O)N[C@@H](C)C(=O)N2CCCCC2)CC(=O)N(C)[C@H](C)C(=O)N(C)[C@@H](Cc2ccccc2)C(=O)N(C)CC(=O)N1C [DP-214] ([dNMeA][NMeF][Sar][NMeL]T[NMeA][NMeL]VD[NMeF][NMeF]A-Piperidide; lactam N-9) | 34 ×10⁻⁶ cm/s | 33 µL/min/mg
15 | CC[C@H](C)[C@H]1C(=O)N[C@H](C(=O)N2CCCCC2)CC(=O)N[C@H](C)C(=O)N[C@@H]([C@@H](C)O)C(=O)N(C)[C@@H](Cc2ccccc2)C(=O)N[C@@H](CC(C)C)C(=O)N2CCC[C@H]2C(=O)N(C)[C@@H](C(C)C)C(=O)N[C@@H](Cc2ccccc2)C(=O)N(C)CC(=O)N(C)[C@@H](CC(C)C)C(=O)N[C@@H](C)C(=O)N1C [DP-215] ([dA]T[NMeF]LP[NMeV]F[Sar][NMeL]A[NMeI]D-Piperidide; lactam N-12) | 24 ×10⁻⁶ cm/s | 35 µL/min/mg
16 | CC[C@H](C)[C@H]1C(=O)N[C@H](C(=O)N2CCCCC2)CC(=O)N[C@H](C(C)C)C(=O)N[C@@H](CC(C)C)C(=O)N(C)[C@@H](Cc2ccccc2)C(=O)N[C@@H]([C@@H](C)O)C(=O)N(C)[C@@H](C)C(=O)N[C@@H](C(C)C)C(=O)N[C@@H](Cc2ccccc2)C(=O)N(C)[C@@H](CC(C)C)C(=O)N[C@@H](CC(C)C)C(=O)NCC(=O)N1C [DP-216] ([dV]L[NMeF]T[NMeA]VF[NMeL]LG[NMeI]D-Piperidide; lactam N-12) | 4.5 ×10⁻⁶ cm/s | 43 µL/min/mg
17 | CC[C@H](C)[C@H]1C(=O)N[C@@H](C)C(=O)N[C@@H](Cc2ccccc2)C(=O)N(C)[C@@H](Cc2ccccc2)C(=O)N[C@@H]([C@@H](C)O)C(=O)N(C)[C@@H](C)C(=O)N[C@@H](CC(C)C)C(=O)N[C@H](C(=O)N2CCCCC2)CC(=O)N[C@H](C(C)C)C(=O)N(C)[C@@H](C(C)C)C(=O)NCC(=O)N(C)[C@@H](CC(C)C)C(=O)N1C [DP-217] ([dV][NMeV]G[NMeL][NMeI]AF[NMeF]T[NMeA]LD-Piperidide; lactam N-12) | 38 ×10⁻⁶ cm/s | 37 µL/min/mg
